Measured values reported in patent US6869783B1, “Method for producing chiral carboxylic acids from nitriles with the assistance of a nitrilase or microoganisms which contain a gene for the nitrilase” (BASF Aktiengesellschaft, priority 1998, dated 2005).

System: nitrilase 1650
Assay: Conversion of various nitriles with nitrilase 1650 (NH4 ions in supernatant, microtiter plate)
Type: biochemical, Alcaligenes faecalis 1650
Parameters: Activity: unit not given here
Conditions: 10 mM substrate, 2 g/l dry biomass, 30° C, 2 hours, pH 7.2

With “α-(3-heptyl)-nitro-triacetonitrile [Substrate 14]” the “% conversion” value was 44.1%.

Work on “α-(3-heptyl)-nitro-triacetonitrile [Substrate 14]” yielded an Activity of 0.35.

Same assay, conditions: 10 mM substrate, 2 g/l dry biomass, 30° C, 2 hours, pH 7.2; average of a microtiter plate row

With “α-(3-heptyl)-nitro-triacetonitrile [Substrate 14]” the “μmol/l (amount of NH4 ions produced in the supernatant)” value (shortened to “μmol/l”) was 84.8 µmol/L.

Same assay, conditions: pH 7.2

Compared with `CC(C#N)c1ccccc1` (stereo not shown) [Substrate 2, 2-phenylpropionitrile], `CCC(C#N)c1ccccc1` (stereo not shown) [Substrate 3, 2-phenylbutyronitrile] is lower in “% conversion” value: 70.2% for the first, 44.3% for the second.

`N#CCc1ccccc1` [Substrate 4, benzyl cyanide] and `N#CCc1ccc(Cl)cc1` [Substrate 5, 4-chlorobenzyl cyanide] are the same in “% conversion” value: 100% for the first, 100% for the second.

`N#CCc1ccc(Br)cc1` [Substrate 6, 4-bromobenzyl cyanide] was tested, and the “% conversion” value was 100%.

Going from `CC(C#N)c1ccccc1` (stereo not shown) [Substrate 2, 2-phenylpropionitrile] to `CCC(C#N)c1ccccc1` (stereo not shown) [Substrate 3, 2-phenylbutyronitrile], the Activity falls from 4.1 to 0.1.

Going from `N#CCc1ccccc1` [Substrate 4, benzyl cyanide] to `N#CCc1ccc(Cl)cc1` [Substrate 5, 4-chlorobenzyl cyanide], the Activity falls from 9.2 to 8.9.

Compared with `N#CCc1ccc(Br)cc1` [Substrate 6, 4-bromobenzyl cyanide], `CCC#N` [Substrate 7, propionitrile] is lower in Activity: 6.2 for the first, 0.02 for the second.

`CCCCC#N` [Substrate 10, valeronitrile] gave an Activity of 0.47.

Going from `CC(C#N)c1ccccc1` (stereo not shown) [Substrate 2, 2-phenylpropionitrile] to `CCC(C#N)c1ccccc1` (stereo not shown) [Substrate 3, 2-phenylbutyronitrile], the “μmol/l” value falls from 1001.1 µmol/L to 24.4 µmol/L.

First: N#CCc1ccccc1 [Substrate 4, benzyl cyanide]
Second: N#CCc1ccc(Cl)cc1 [Substrate 5, 4-chlorobenzyl cyanide]
The “μmol/l” value of the first is higher: 2210.5 µmol/L for the first, 2136.3 µmol/L for the second.

Compared with `N#CCc1ccc(Br)cc1` [Substrate 6, 4-bromobenzyl cyanide], `CCC#N` [Substrate 7, propionitrile] is lower in “μmol/l” value: 1500.8 µmol/L for the first, 4.9 µmol/L for the second.

With `CCCCC#N` [Substrate 10, valeronitrile] the “μmol/l” value was 113.4 µmol/L.
